Assay results published in patent US20230021483A1, “[…] […] METHOD AND CLASSIFICATION OF PHARMACEUTICAL COMPONENTS BY USING TRANSCRIPTOMES” (National Institutes of Biomedical Innovation, Health and …, priority 2016, published 2023).
Values joined by “and” are separate entries in the source; they are usually repeats but may differ in a detail not shown here. Equal entries are not always repeated.

Assays:
Type in all cases: in vivo, C57BL/6 mice
spleen (SP) = assay: Whole organ transcriptome (GeneChip microarray) of spleen 6 h after adjuvant administration: sDEGs, hierarchical clustering; details: i.d. administration
[1] = system: preferentially upregulated genes in LV, SP, LN; assay: Z-score-based differential gene expression analysis (adjuvant group- or adjuvant-associated genes, 40 module mapping, TargetMine annotation)
Procedure, shortened: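 Per-sample fold-change values converted to gene-wise z-scores within each organ's data set, then triplicate z-scores summed per adjuvant. Genes with summed score >3 taken as preferentially expressed; gene groups defined by combined per-adjuvant z-score thresholds (z>1 to z>3) specific to each organ.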

LV, SP and LNs = assay: Whole organ transcriptome across organs (adjuvant gene space): gene responses and adjuvant grouping
[2] = system: inguinal lymph nodes (LN); assay: Whole organ transcriptome (GeneChip microarray) of draining inguinal lymph nodes 6 h after adjuvant administration: sDEGs, gene modules, hierarchical clustering; details: lymph node; on adjuvant group (cluster) in LN: key: G1 (interferon signaling); G2 (metabolism of lipids and lipoproteins); G3 (response to stress); G4 (response to wounding); G5 (phosphate-containing compound metabolic process); G6 (phagosome)
[3] = ID, LN, samples x1-x3, Module#(LN) 40
[4] = liver (LV), gene group G1, module 20, individual mice x1-x3, route ID/IP/IN

D35: A class CpG ODN (5′-GGTGCATCGATGCAGGGGGG-3′), TLR9 ligand (DNA GGTGCATCGATGCAGGGGGG; chemistry not given here)
Number of gene probes with statistically significant changes (sDEGs), SP, Down (spleen (SP); fold change <0.667, p<0.01, customized PA call=1, 6 h after adjuvant): 19 | Number of gene probes with statistically significant changes (sDEGs), SP, Up (spleen (SP); fold change >1.5, p<0.01, customized PA call=1, 6 h after adjuvant): 23 | z sum, 1444615_x_at Runx1t1 ([1]; ID, LN, Module#(LN) 1): 3.519 | z sum, 1420894_at Tgfbr1 ([1]; ID, LN, Module#(LN) 3): 3.333 | z sum, 1460069_at Smc6 ([1]; ID, LN, Module#(LN) 7): 3.274 | z sum, 1440371_at --- ([1]; ID, LN, Module#(LN) 8): 3.29 | z sum, 1456346_at --- ([1]; ID, LN, Module#(LN) 9): 3.455 | z sum, 1425105_at Rbp3 ([1]; ID, LN, Module#(LN) 10): 3.333 | z sum, 1455796_x_at Olfm1 ([1]; ID, LN, Module#(LN) 11): 3.262 | z sum, 1443302_at --- ([1]; ID, LN, Module#(LN) 12): 3.407 | z sum, 1442518_at C030044O21Rik ([1]; ID, LN, Module#(LN) 14): 3.546 | z sum, 1419486_at Foxc1 ([1]; ID, LN, Module#(LN) 19): 3.344 | z sum, 1441344_at Erlin1 ([1]; ID, LN, Module#(LN) 21): 3.171 | z sum, 1423611_at Alpl ([1]; ID, LN, Module#(LN) 24): 3.194 | z sum, 1448179_at Usmg5 ([1]; ID, LN, Module#(LN) 24): 3.461 | z sum, 1458457_at --- ([1]; ID, LN, Module#(LN) 26): 3.147 | z sum, 1450377_at Thbs1 ([1]; ID, LN, Module#(LN) 28): 3.002 | z sum, 1443853_x_at Sfmbt1 ([1]; ID, LN, Module#(LN) 32): 3.51 | z sum, 1443392_at Trpv1 ([1]; ID, LN, Module#(LN) 33): 3.184 | z sum, 1440475_at AW011738 ([1]; ID, LN, Module#(LN) 36): 3.038 | z sum, 1416380_at Mov10 ([1]; ID, LN, Module#(LN) 37): 3.277 | z sum, 1421008_at Rsad2 ([1]; ID, LN, Module#(LN) 37): 3.221 | z sum, 1421009_at Rsad2 ([1]; ID, LN, Module#(LN) 37): 3.209 | z sum, 1424339_at Oasl1 ([1]; ID, LN, Module#(LN) 37): 3.198 | z sum, 1426013_s_at Plekha4 ([1]; ID, LN, Module#(LN) 37): 3.228 | z sum, 1436058_at Rsad2 ([1]; ID, LN, Module#(LN) 37): 3.281 | z sum, 1436472_at Slfn9 ([1]; ID, LN, Module#(LN) 37): 3.595 | z sum, 1447241_at --- ([1]; ID, LN, Module#(LN) 37): 3.033 | z sum, 1416039_x_at Cyr61 ([1]; ID, LN, Module#(LN) 39): 3.015 | z sum, 1418191_at Usp18 ([1]; ID, LN, Module#(LN) 40): 3.035 | z sum, 1418293_at Ifit2 ([1]; ID, LN, Module#(LN) 40): 3.02 | z sum, 1418580_at Rtp4 ([1]; ID, LN, Module#(LN) 40): 3.028 | z sum, 1419603_at Ifi204 ([1]; ID, LN, Module#(LN) 40): 3.659 | z sum, 1421911_at Stat2 ([1]; ID, LN, Module#(LN) 40): 3.137 | z sum, 1422006_at Eif2ak2 ([1]; ID, LN, Module#(LN) 40): 3.279 | z sum, 1422141_s_at Csprs///Gm15433///Gm2666///Gm7609///LOC100041903///LOC100503923 ([1]; ID, LN, Module#(LN) 40): 3.074 | z sum, 1423555_a_at Ifi44 ([1]; ID, LN, Module#(LN) 40): 3.551 | z sum, 1424444_a_at 1600014C10Rik ([1]; ID, LN, Module#(LN) 40): 3.108 | z sum, 1424607_a_at Gm4354 ([1]; ID, LN, Module#(LN) 40): 3.422 | z sum, 1424609_a_at Cwc22///Gm4354///Xdh ([1]; ID, LN, Module#(LN) 40): 3.429 | z sum, 1431095_a_at Herc6 ([1]; ID, LN, Module#(LN) 40): 3.065 | z sum, 1432417_a_at Tspan2 ([1]; ID, LN, Module#(LN) 40): 3.906 | z sum, 1439886_at --- ([1]; ID, LN, Module#(LN) 40): 3.151 | z sum, 1450403_at Stat2 ([1]; ID, LN, Module#(LN) 40): 3.389 | z sum, 1451777_at Ddx60 ([1]; ID, LN, Module#(LN) 40): 3.02 | z sum, 1452349_x_at Ifi205///Mnda ([1]; ID, LN, Module#(LN) 40): 3.123 | z sum, 1453196_a_at Oasl2 ([1]; ID, LN, Module#(LN) 40): 3.123 | z sum, 1453299_a_at Pnp///Pnp2 ([1]; ID, LN, Module#(LN) 40): 3.12 | z sum, 1453757_at Herc6 ([1]; ID, LN, Module#(LN) 40): 3.183 | z sum, 1456164_at AW011738 ([1]; ID, LN, Module#(LN) 40): 3.347 | z sum, 1457035_at Al607873 ([1]; ID, LN, Module#(LN) 40): 3.377 | z-score of fold change, 1460069_at Smc6 ([1]; ID, LN, samples x1-x3, Module#(LN) 7): 0.716 and 1.173 and 1.385 | z-score of fold change, 1442518_at C030044O21Rik ([1]; ID, LN, samples x1-x3, Module#(LN) 14): 0.953 and 1.161 and 1.432 | z-score of fold change, 1423611_at Alpl ([1]; ID, LN, samples x1-x3, Module#(LN) 24): 0.707 and 1.244 | z-score of fold change, 1436472_at Slfn9 ([1]; ID, LN, samples x1-x3, Module#(LN) 37): 1.143 and 1.047 and 1.405 | z-score of fold change, 1419603_at Ifi204 [1, 3]: 1.185 and 1.269 and 1.205 | z-score of fold change, 1422006_at Eif2ak2 [1, 3]: 1.174 and 1.037 and 1.068 | z-score of fold change, 1424607_a_at Gm4354 [1, 3]: 1.005 and 1.314 and 1.103 | z-score of fold change, 1424609_a_at Cwc22///Gm4354///Xdh [1, 3]: 1.178 and 1.294 and 0.958 | z-score of fold change, 1432417_a_at Tspan2 [1, 3]: 1.133 and 1.404 and 1.369 | z-score of fold change, 1451777_at Ddx60 [1, 3]: 0.83 and 1.215 and 0.975 | z-score of fold change, 1457035_at Al607873 [1, 3]: 0.908 and 1.231 and 1.239 | interferon induction relative to adjuvants targeting the same receptor ([1]; LN, z-scores and 40 module mapping): relatively stronger interferon inducer than K3 or K3SPG | Z score of gene expression, Adar (probe 1425405_a_at) [1, 4]: −0.1 and −0.3 (2×) | Z score of gene expression, Adar (probe 1434268_at) [1, 4]: −0.3 (2×) and −0.4 | Z score of gene expression, Ddx58 (probe 1436562_at) [1, 4]: −0.4 (2×) and −0.1 | Z score of gene expression, Ddx58 (probe 1456890_at) [1, 4]: −0.3 (2×) and −0.4 | Z score of gene expression, Eif2ak2 (probe 1422005_at) [1, 4]: −0.5 and −0.4 (2×) | Z score of gene expression, G3bp2 (probe 1421323_a_at) [1, 4]: −0.5 and −0.4 (2×) | Z score of gene expression, Gm9706///Isg15 (probe 1431591_s_at) [1, 4]: −0.5 | Z score of gene expression, H2-T10///H2-T22///H2-T9 (probe 1449875_s_at) [1, 4]: −0.4 and −0.3 and −0.2 | Z score of gene expression, Ifih1 (probe 1426276_at) [1, 4]: −0.5 (2×) and −0.3 | Z score of gene expression, Ifit1 (probe 1449025_at) [1, 4]: −0.5 | Z score of gene expression, Ifit1 (probe 1450783_at) [1, 4]: −0.5 and −0.4 (2×) | Z score of gene expression, Irf7 (probe 1417244_a_at) [1, 4]: −0.3 (2×) and −0.2 | Z score of gene expression, Irgm1 (probe 1418825_at) [1, 4]: −0.5 (2×) and −0.3 | Z score of gene expression, Mndal (probe 1426906_at) [1, 4]: −0.5 and −0.4 and −0.3 | Z score of gene expression, Pml (probe 1448757_at) [1, 4]: −0.7 and −0.4 and −0.3 | Z score of gene expression, Pml (probe 1456103_at) [1, 4]: −0.4 and −0.3 (2×) | Z score of gene expression, Rnf213 (probe 1455500_at) [1, 4]: −0.4 | Z score of gene expression, Rsad2 (probe 1436058_at) [1, 4]: −0.5 | Z score of gene expression, Shisa5 (probe 1423986_a_at) [1, 4]: −0.5 and −0.6 and −0 | Z score of gene expression, Shisa5 (probe 1437503_a_at) [1, 4]: −0.4 (2×) and 0.15 | Z score of gene expression, Stat1 (probe 1450033_a_at) [1, 4]: −0.5 (2×) and −0.4 | Z score of gene expression, Stat1 (probe 1450034_at) [1, 4]: −0.5 | Z score of gene expression, Tdrd7 (probe 1426716_at) [1, 4]: −0.4 (2×) and −0.1 | Z score of gene expression, Tor1aip2 (probe 1418115_s_at) [1, 4]: −0.4 and −0.6 and −0.1 | Z score of gene expression, Tor1aip2 (probe 1418116_at) [1, 4]: −0.4 and −0.5 and −0.2 | Z score of gene expression, Tor1aip2 (probe 1435526_at) [1, 4]: −0.4 (2×) and −0.5 | Z score of gene expression, Trim12a (probe 1437432_a_at) [1, 4]: −0.4 (2×) and −0.5 | Z score of gene expression, Uba7 (probe 1426970_a_at) [1, 4]: −0.8 and −0.6 and −0.5 | distribution/strength of gene responses between local LNs and systemic organs (LV, SP) (LV, SP and LNs; 6 h after i.d. (local) administration): acted on local LNs but not in the systemic remote organs | adjuvant group (cluster) within the adjuvant gene space (LV, SP and LNs; hierarchical clustering, LV, SP and/or LNs): G5 | adjuvant group (cluster) in LN ([2]; hierarchical clustering): G5 | Number of gene probes with statistically significant changes (sDEGs), LN, Down ([2]; i.d. administration, fold change <0.667, p<0.01, customized PA call=1, 6 h after adjuvant): 12 | Number of gene probes with statistically significant changes (sDEGs), LN, Up ([2]; i.d. administration, fold change >1.5, p<0.01, customized PA call=1, 6 h after adjuvant): 69
